We go through 1 molecule from paper PMC4481117 (Molecular Pain, 2015).

The subject of one experiment is GST. The experiment can be described thus: Solid-phase binding of GST (control). The conditions noted are these: immobilized Dyn A; % of the αMI-domains; not shown. Here is the method:
Microtiter plates were coated with different concentrations of the fibrinogen D100 fragment or Dyn A overnight at 4 °C and post-coated with 3 % BSA for 1 h. The GST-αMI-domains in 20 mM Tris–HCl, pH 7.4, 100 mM NaCl, 1 mM MgCl2, 1 mM CaCl2, 0.05 % Tween 20, and 5 % glycerol were added to the wells and incubated for 1.5 h at 22 °C. After washing, the plates were incubated with an anti-GST mAb at a 1:5000 dilution for 1 h at 22 °C. After washing, goat anti-mouse IgG conjugated to alkaline phosphatase was added for 1 h and the binding of the αMI-domains was detected by reaction with p-nitrophenyl phosphate measuring the absorbance at 405 nm. Background binding to BSA was subtracted.

The subject of the next experiment is Mac-1-HEK293 cells. The experiment can be described thus: Transwell migration of Mac-1-HEK293 cells to Dyn A. The note with it: 16 h at 37 °C. It is filed as cell-based, Human. Here is the method: (§1) Fig. 6 Migration of Mac-1-expressing cells to Dyn A in a Transwell system. a, Mac-1-expressing HEK 293 cells (100 μl at 3 × 10^6 cell/ml) were added to the upper wells of the transwell chamber and their ability to migrate to different concentrations of Dyn A placed in the lower chamber was analyzed. After 16 hours at 37 °C, migrated cells were fixed, stained, and counted. Data are presented as numbers of migrated cells per field ± S.E. for five random fields per well. The figure is representative of 5 experiments. b, Mac-1-expressing or wild-type HEK 293 cells were added to the upper wells of the transwell chamber and their ability to migrate to 10 μM Dyn A placed in the lower chamber was analyzed as in A. Some Mac-1-HEK293 cells were pretreated with 20 μg/ml of mAbs 44a (anti-αM), IB4 (anti-β2) or OKM1 (non function-blocking anti-αM) or medium alone before addition to the upper wells. ***, medium alone. Data are presented as the number of migrated cells per field ± S.E. for five random fields/well from 3 separate experiments. **, p < 0.01. c, migration of TG-elicited macrophages isolated from the peritoneum of wild-type and Mac-1-deficient mice. Macrophages (3x10^5) were placed in the upper chamber and allowed to migrate to Dyn A (10 μM) in the lower chamber for 90 min. The number of migrated cells was determined as in A. Data are presented as number of migrated cells per field ± S.E. for five random fields per well. The figure is representative of 3 experiments
(§2) Migration assays with wild-type and Mac-1-expressing HEK293 cells and purified macrophages using Transwell inserts (5 μm pore size) were performed as previously described. […] The photographs were taken using a 20x objective and cells in […] and cells were counted. […]

A further experiment concerns wild-type macrophages. The experiment can be described thus: Transwell migration of wild-type peritoneal macrophages to Dyn A. It is filed as cell-based, mouse. The note with it: 10 μM Dyn A, 90 min at 37 °C, TG-elicited. The procedure:
as §1, with “Data are presented as the number of migrated cells per field ± S.E. for five random fields/well from 3 separate experiments. **, p < 0.01. c, migration of TG-elicited macrophages isolated from the peritoneum of wild-type and Mac-1-deficient mice. Macrophages (3x10^5) were placed in the upper chamber and allowed to migrate to Dyn A (10 μM) in the lower chamber for 90 min.” left out, “The figure is representative of 3 experiments” left out
as §2

The test system of experiment [1] is Mac-1-deficient macrophages. The experiment can be described thus: Transwell migration of Mac-1-deficient peritoneal macrophages to Dyn A. The note with it: 10 μM Dyn A, 90 min at 37 °C, TG-elicited. The format is cell-based, mouse. Here is the method:
as §1, with “Data are presented as the number of migrated cells per field ± S.E. for five random fields/well from 3 separate experiments. **, p < 0.01. c, migration of TG-elicited macrophages isolated from the peritoneum of wild-type and Mac-1-deficient mice. Macrophages (3x10^5) were placed in the upper chamber and allowed to migrate to Dyn A (10 μM) in the lower chamber for 90 min.” left out, “The figure is representative of 3 experiments” left out
as §2

The test system of the next experiment is macrophages. The conditions noted are these: cited from earlier work. The text has this:
(§3) Apart from their effects on κ-opioid receptors on neurons, Dyn A exerts numerous effects on leukocytes, particularly myeloid cells. […] In addition, Dyn A (residues 1–13) and Dyn A (residues 1–9) stimulate ...

Another experiment has as its system macrophage. The conditions noted are these: cited from earlier work.
From the text: as §3

Another experiment concerns rat mast cells. The note with it: cited from earlier work.
From the text: as §3

The next experiment concerns k-opioid receptors. Details: method as in PMID 10973443, PMID 16364815, PMID 22424981. The conditions noted are these: cited from earlier work.
Another experiment relates to cells. The conditions noted are these: cited from earlier work.

`CC[C@H](C)[C@H](NC(=O)[C@H](CCCNC(=N)N)NC(=O)[C@H](CCCNC(=N)N)NC(=O)[C@H](CC(C)C)NC(=O)[C@H](Cc1ccccc1)NC(=O)CNC(=O)CNC(=O)[C@@H](N)Cc1ccc(O)cc1)C(=O)N[C@@H](CCCNC(=N)N)C(=O)N1CCC[C@H]1C(=O)N[C@@H](CCCCN)C(=O)N[C@@H](CC(C)C)C(=O)N[C@@H](CCCCN)C(=O)N[C@@H](Cc1c[nH]c2ccccc12)C(=O)N[C@@H](CC(=O)O)C(=O)N[C@@H](CC(N)=O)C(=O)N[C@@H](CCC(N)=O)C(=O)O` [Dyn A]: in the experiment on GST, the “Binding of GST to Dyn A relative to the αMI-domains” value is “less than 5%”. Further, in the experiment on Mac-1-HEK293 cells (Transwell 5 μm), the “Concentration at which migratory response reaches saturation” value is 5 µM and the “Lowest concentration inducing migration” value lay within 0.5 to 1 µM. The “Migration of Mac-1-HEK293 cells (in words)” value with Mac-1-HEK293 cells (Transwell) was “strong concentration-dependent migratory response”. The “Migration of wild-type macrophages (in words)” value in the experiment with wild-type macrophages is reported as “migrated to Dyn A”. Besides, in experiment [1], the “Migration of Mac-1-deficient macrophages (in words)” value is reported as “significantly impaired”. For the same molecule, the “Secretion of IL-1 and TNFα” value with macrophages is “increase secretion of IL-1 and TNFα by macrophages”. For the same molecule, in the experiment on macrophage, the Superoxide generation entry is on record as “stimulate macrophage superoxide generation” and the Zymosan-triggered oxidative burst result is listed as “enhance macrophage zymosan-triggered oxidative burst”. In addition, the Nitric oxide release result in the experiment on macrophage (induced by LPS and IFN-γ) was “decrease nitric oxide release induced by LPS and IFN-γ”. Also, in the experiment on rat mast cells, the “Degranulation and histamine release” value was “induce degranulation and histamine release from rat mast cells”. Further, in the experiment on k-opioid receptors, the κ-opioid receptor binding result was “binds preferentially to the k-opioid receptors”. The Cell entry entry in the experiment on cells is “enters the cells”.
